The source of these data is patent US10206889B2, “Emesis treatment” (Repurposed Therapeutics, Inc., priority 2009, dated 2019).

The target in data set [1] is T1, 5-HT1A receptor (Human Ligand) (Homo sapiens, UniProt P08908).
T1 sequence (P08908 1-422): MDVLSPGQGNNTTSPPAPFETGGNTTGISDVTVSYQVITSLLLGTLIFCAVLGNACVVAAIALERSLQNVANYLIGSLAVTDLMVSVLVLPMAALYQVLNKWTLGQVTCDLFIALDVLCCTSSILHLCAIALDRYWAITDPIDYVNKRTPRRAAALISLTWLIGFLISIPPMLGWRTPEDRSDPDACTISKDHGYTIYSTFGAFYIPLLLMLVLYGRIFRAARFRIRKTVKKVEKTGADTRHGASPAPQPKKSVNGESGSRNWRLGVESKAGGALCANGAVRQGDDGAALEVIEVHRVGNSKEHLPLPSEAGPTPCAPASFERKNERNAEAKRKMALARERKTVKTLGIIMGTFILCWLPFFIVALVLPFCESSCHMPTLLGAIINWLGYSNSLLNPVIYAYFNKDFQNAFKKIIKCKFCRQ
The data set is described as follows: 5-HT1A cellular function, agonist. The format is cell-based. The procedure:
The percent of control agonist response was recorded for several log concentrations of compounds/compositions.

Data set [2] addresses T1, 5-HT1A receptor (Human Ligand). The data set is described as follows: 5-HT1A cellular function, antagonist. Format: cell-based.
Data set [3] concerns xylazine-induced emesis in cats. The data set is described as follows: Xylazine-induced emesis in cats, with vomit scale and defensive behavior (anxiety) scoring. The note with it: for level of anxiety 15 minutes after treatment / cats vomited / protection against xylazine-induced emesis: FIG. 1, female cats; for cats vomited / protection against xylazine-induced emesis: fifteen minutes before 0.66 mg/kg xylazine SC, observed 30 minutes; for Defensive Behavior Scale / Mean Defensive Score / % Protection (vomiting) / Mean Latency (mean latency to retch/vomit): cats; for % Protection (vomiting) / Mean Latency (mean latency to retch/vomit): 20 minutes before xylazine 0.66 mg/kg; for anxiety-inducing effect in test subjects / effectiveness in preventing (chemically-induced) emesis: summary statement of the description, no dose given, test subjects. Format: in vivo, cats (female domestic short-haired felines). The procedure: (i) 0.9% sodium chloride vehicle (n=6);
[…], 0.66 mg/kg xylazine was administered subcutaneously, and the test subjects where then observed for 30 minutes.
Cats not susceptible to motion sickness were assigned to the xylazine testing group. Xylazine stimulates receptors on a pathway different from that used by motion sickness and thus served as a test of the generality of anti-emetic effects observed with motion testing.
Prior to the evaluation of anti-emetic compounds, the production of an emetic response by xylazine in felines was confirmed in the laboratory. Cats were injected subcutaneously with either a freshly prepared solution of 0.66 mg/kg of xylazine in 0.9% sodium chloride or 0.9% sodium chloride vehicle, both adjusted to an injection volume of 0.1 ml/kg.
One week following the confirmation of an emetic response by the cats, subject cats were given either vehicle or test compound/composition in 0.9% sodium chloride or vehicle (injection volume of 0.1 ml/kg) subcutaneously, 20 minutes before administration of xylazine. […] Animals were scored using the vomit scale developed by Sufi et al., 1979. Additional experiments were separated by at least a 1 week washout period.
A. Vomit Scale Scoring: • 1. Sal I (licking—parasympathetic): 1 pt • 2. Sal II (drool, thin/frothy—early sympathetic): 2 pts • 3. Sal III (stringy saliva, dangles—sympathetic): 4 pts • 4. Defection: 8 pts • 5. Urination: 8 pts • 6. Wretch/vomiting: 16 pts
B. Defensive Behavior Scale: • 1. No defensiveness: normal behavior; • 2. Slight defensiveness: retreating to the rear of the cage when approached and/or growling when being carried; • 3. […] Strong defensiveness: vigorous clawing and biting to prevent being handled. V. Statistical Methods
Dose response curves were analyzed by Cochran's Q-test to establish significant effects. Paired comparisons were made using McNemar's test. Tests for line parallelism, relative potency and ED50 were based on least squares regression in a program for pharmacological statistics. The data from the nonparametric rating scale was analyzed using Friedman's analysis of variance model (ANOVA).

Data set [4] addresses T2, rat ligand of the 5-HT1A receptor (Rattus norvegicus, UniProt P19327).
T2 sequence (P19327 1-422): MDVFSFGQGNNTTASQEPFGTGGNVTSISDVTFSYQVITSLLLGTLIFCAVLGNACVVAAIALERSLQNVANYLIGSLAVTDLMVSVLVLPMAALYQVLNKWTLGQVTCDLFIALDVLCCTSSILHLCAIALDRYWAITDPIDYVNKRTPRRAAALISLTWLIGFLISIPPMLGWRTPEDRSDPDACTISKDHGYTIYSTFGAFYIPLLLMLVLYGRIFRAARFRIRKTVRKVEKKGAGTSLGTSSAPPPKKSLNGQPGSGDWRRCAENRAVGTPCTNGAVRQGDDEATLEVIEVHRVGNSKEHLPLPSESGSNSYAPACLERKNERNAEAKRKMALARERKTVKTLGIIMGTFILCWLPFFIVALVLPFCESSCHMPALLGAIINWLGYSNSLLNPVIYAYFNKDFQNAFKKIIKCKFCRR
The note with it: Cornfield 1991, Hadrava 1996, Dabrowska 2006; cited from earlier work.

As to `CCCN(CCC)[C@H]1CCc2cccc(O)c2C1` [S-(−)-DPAT, S(−)-8-hydroxy-2-(dipropylamino)tetralin], the “Cellular Function Agonist: type of agonism” value in data set [1] (listed as S(−)-8-OH-DPAT) is on record as “Full Agonist”. Also, the “Cellular Function Antagonist (IC50, nM)” value in data set [2] is “Inactive”. Further, in data set [3] (0.08 mg/kg SC), the “level of anxiety 15 minutes after treatment” value (from here on “level of anxiety 15 minutes”) is listed as “did not show any anxiety”, the cats vomited is 40% and the “protection against xylazine-induced emesis” value came to 60%. Further, in data set [3] (dose 0.08 mg/kg SC), the “Defensive Behavior Scale” value is “None”, the “Mean Defensive Score” value is 0.0, the “% Protection (vomiting)” value is 75.00% and the “Mean Latency (mean latency to retch/vomit)” value is 1.58 min. In data set [3] (dose 0.16 mg/kg SC), the “Defensive Behavior Scale” value is listed as “None”, the “Mean Defensive Score” value worked out at 0.0, the “% Protection (vomiting)” value is recorded as 85.71% and the “Mean Latency (mean latency to retch/vomit)” value amounted to 0.82 min. In data set [3] (dose 0.32 mg/kg SC), the “Defensive Behavior Scale” value is on record as “Slight”, the “Mean Defensive Score” value was determined as 1.0, the “% Protection (vomiting)” value stood at 80.00% and the “Mean Latency (mean latency to retch/vomit)” value turned out to be 1.00 min. Further, in data set [3], the “anxiety-inducing effect in test subjects” value was “no anxiety or only slight anxiety” and the “effectiveness in preventing (chemically-induced) emesis” value was “not fully effective”. The “type of agonism at the 5-HT1A receptor (previous findings)” value in data set [4] is “partial agonist”.

Turning to `CCCN(CCC)[C@@H]1CCc2cccc(O)c2C1` [R-(+)-DPAT, R(+)-8-hydroxy-2-(dipropylamino)tetralin], the “Cellular Function Agonist: type of agonism” value in data set [1] (listed as R(+)-8-OH-DPAT) was “Full Agonist”. In addition, the “Cellular Function Antagonist (IC50, nM)” value in data set [2] was “Inactive”. In data set [3] (0.08 mg/kg SC), the “level of anxiety 15 minutes” value is reported as “extreme level of anxiety” and the cats vomited result was “none of the cats vomited”. In addition, in data set [3] (dose 0.02 mg/kg SC), the “Defensive Behavior Scale” value was “Moderate”, the “Mean Defensive Score” value amounted to 2.0, the “% Protection (vomiting)” value stood at 100.00% and the “Mean Latency (mean latency to retch/vomit)” value was 0.00 min. Besides, in data set [3] (dose 0.04 mg/kg SC), the “Defensive Behavior Scale” value is on record as “Strong”, the “Mean Defensive Score” value worked out at 3.0, the “% Protection (vomiting)” value amounted to 100.00% and the “Mean Latency (mean latency to retch/vomit)” value was 0.00 min. For the same molecule, in data set [3] (dose 0.08 mg/kg SC), the “Defensive Behavior Scale” value is reported as “Strong”, the “Mean Defensive Score” value is 3.0, the “% Protection (vomiting)” value is 100.00% and the “Mean Latency (mean latency to retch/vomit)” value worked out at 0.00 min. In data set [3], the “anxiety-inducing effect in test subjects” value is recorded as “moderate to strong” and the “effectiveness in preventing (chemically-induced) emesis” value came to 100%. For the same molecule, in data set [4], the “type of agonism at the 5-HT1A receptor (previous findings)” value was “full agonist”.

For the molecule `CCCN(CCC)C1CCc2cccc(O)c2C1` (racemic) [R/S-(+/−)-DPAT, (±)-8-Hydroxy-2-(dipropylamino)tetralin], the “Cellular Function Antagonist (IC50, nM)” value in data set [2] is listed as “Inactive”. Also, in data set [3] (0.16 mg/kg SC), the “level of anxiety 15 minutes” value is reported as “moderate level of anxiety” and the “protection against xylazine-induced emesis” value stood at 100%. For the same molecule, in data set [3] (dose 0.16 mg/kg SC), the “Defensive Behavior Scale” value is given as “Moderate”, the “Mean Defensive Score” value was found to be 2.0, the “% Protection (vomiting)” value turned out to be 100.00% and the “Mean Latency (mean latency to retch/vomit)” value amounted to 0.0 min.
